For 20 compounds, IC50 results are on record in US9931327B2, “Derivatives of 1-phenyl-2-pyridinyl alkyl alcohols as phosphodiesterase inhibitors” (Chiesi Farmaceutici S.p.A., priority 2011, dated 2018).

pIC50: −log10 of the molar value. Where two headings read alike, the source gives them in different places. Bounds are passed on as bounds.

The subject of this experiment is LPS-induced TNF-α release in peripheral blood mononuclear cells (PBMCs). The experiment is described as follows: In vitro determination of PDE4 inhibitory activity in the PBMCs assay (LPS-induced TNF-α release). Format: cell-based, human. The conditions noted are these: PBMC, human PBMCs, LPS 3 ng/ml, 18 hours, read-out: PDE4 inhibition (IC50, 50% inhibition of LPS-induced TNF-α release). The procedure:
The assay, which is based on the known inhibitory activity exerted by PDE4 inhibitors on the lipopolyshaccarides (LPS)-induced tumour necrosis factor-alpha (TNF-α release in peripheral blood mononuclear cells (PBMCs), was performed according to a method previously described (Hatzelmann A et al., J. Pharmacol. Exp. Ther., 2001; 297:267-279; and Draheim R et al., J. Pharmacol. Exp. Ther., 2004; 308:555-563, which are incorporated herein by reference in their entireties). Cryopreserved human PBMCs, (100 l/well) were incubated in 96-well plates (10^5 cells/well), for 30 minutes, in the presence or absence (50 microl) of the test compounds whose concentrations ranged from 10^−12 M to 10^−6 M or from […] to 10^−7 M. Subsequently, LPS (3 ng/ml) was added.
After 18 hours of incubation at 37° C. in a humidified incubator under an atmosphere of 95% air and 5% CO2, culture medium was collected and TNF-α measured by ELISA. The results of the tested compounds, representatives of the invention, expressed as mean±95% confidence limits of the molar concentration of the test compound producing 50% inhibition of LPS-induced TNF-α release (IC50) are shown in the following Table: […]

As a reminder, the pIC50 is −log10 of the IC50, conventionally taken in molar units.

As for `CN(C)C(=O)c1cccc(S(=O)(=O)N2CCS[C@H]2C(=O)O[C@@H](Cc2c(Cl)c[n+]([O-])cc2Cl)c2ccc(OC(F)F)c(OCC3CC3)c2)c1` [Compound 52, 3,5-dichloro-4-((S)-2-(3-(cyclopropylmethoxy)-4-(difluoromethoxy)phenyl)-2-((S)-3-(3-(dimethylcarbamoyl)phenylsulfonyl)thiazolidine-2-carbonyloxy)ethyl)pyridine 1-oxide], the negative-log IC50 (pIC50) (TNF-α by ELISA) was over 10.00.
The same measure, in the same setting: the value for `CN(C)S(=O)(=O)c1cccc(S(=O)(=O)N2CCCC2C(=O)O[C@@H](Cc2c(Cl)c[n+]([O-])cc2Cl)c2ccc(OC(F)F)c(OCC3CC3)c2)c1` (stereo in doubt) [Compound 238, 3,5-dichloro-4-((S)-2-(3-(cyclopropylmethoxy)-4-(difluoromethoxy)phenyl)-2-((S)-1-(3-(N,N-dimethylsulfamoyl)phenylsulfonyl)pyrrolidine-2-carbonyloxy)ethyl)pyridine 1-oxide] was 9.00 to 10.00; that for `Cc1nn(C)c2ncc(S(=O)(=O)N3CCSC3C(=O)O[C@@H](Cc3c(Cl)c[n+]([O-])cc3Cl)c3ccc(OC(F)F)c(OCC4CC4)c3)cc12` (stereo in doubt) [Compound 240, 3,5-dichloro-4-((S)-2-(3-(cyclopropylmethoxy)-4-(difluoromethoxy)phenyl)-2-((S)-3-(1,3-dimethyl-1H-pyrazolo[3,4-b]pyridin-5-ylsulfonyl)thiazolidine-2-carbonyloxy)ethyl)pyridine 1-oxide] was over 10.00; that for `O=C(O[C@@H](Cc1c(Cl)c[n+]([O-])cc1Cl)c1ccc(OC(F)F)c(OCC2CC2)c1)[C@@H]1SCCN1S(=O)(=O)c1ccccc1` [Compound 89, 3,5-dichloro-4-((S)-2-(3-(cyclopropylmethoxy)-4-(difluoromethoxy)phenyl)-2-((S)-3-(phenylsulfonyl)thiazolidine-2-carbonyloxy)ethyl)pyridine 1-oxide] was 9.00 to 10.00.
Still for that read-out and setting: in the case of `NS(=O)(=O)c1cccc(S(=O)(=O)N2CCS[C@H]2C(=O)O[C@@H](Cc2c(Cl)c[n+]([O-])cc2Cl)c2ccc(OC(F)F)c(OCC3CC3)c2)c1` [Compound 91, 3,5-dichloro-4-((S)-2-(3-(cyclopropylmethoxy)-4-(difluoromethoxy)phenyl)-2-((S)-3-(3-sulfamoylphenylsulfonyl)thiazolidine-2-carbonyloxy)ethyl)pyridine 1-oxide] it was over 10.00; in that of `COc1ccc(S(=O)(=O)N2CCS[C@H]2C(=O)O[C@@H](Cc2c(Cl)c[n+]([O-])cc2Cl)c2ccc(OC(F)F)c(OCC3CC3)c2)cc1C(=O)N(C)C` [Compound 131, 3,5-dichloro-4-((S)-2-(3-(cyclopropylmethoxy)-4-(difluoromethoxy)phenyl)-2-((S)-3-(3-(dimethylcarbamoyl)-4-methoxyphenylsulfonyl)thiazolidine-2-carbonyloxy)ethyl)pyridine 1-oxide], over 10.00.
Still for that read-out and setting: in the case of `CN1CCOc2ccc(S(=O)(=O)N3CSC[C@H]3C(=O)O[C@@H](Cc3c(Cl)c[n+]([O-])cc3Cl)c3ccc(OC(F)F)c(OCC4CC4)c3)cc21` [Compound 252, 3,5-dichloro-4-((S)-2-(3-(cyclopropylmethoxy)-4-(difluoromethoxy)phenyl)-2-((R)-3-(4-methyl-3,4-dihydro-2H-benzo[b][1,4]oxazin-6-ylsulfonyl)thiazolidine-4-carbonyloxy)ethyl)pyridine 1-oxide] it was over 10.00; in that of `Nc1ccc(S(=O)(=O)N2CSC[C@H]2C(=O)O[C@@H](Cc2c(Cl)c[n+]([O-])cc2Cl)c2ccc(OC(F)F)c(OCC3CC3)c2)cc1` [Compound 138, 4-((S)-2-((R)-3-(4-aminophenylsulfonyl)thiazolidine-4-carbonyloxy)-2-(3-(cyclopropylmethoxy)-4-(difluoromethoxy)phenyl)ethyl)-3,5-dichloropyridine 1-oxide], 9.00 to 10.00.
Consider `O=C(O[C@@H](Cc1c(Cl)c[n+]([O-])cc1Cl)c1ccc(OC(F)F)c(OCC2CC2)c1)[C@@H]1CCCCN1S(=O)(=O)c1ccc(N2CCOCC2)nc1` [Compound 111, 3,5-dichloro-4-((S)-2-(3-(cyclopropylmethoxy)-4-(difluoromethoxy)phenyl)-2-((S)-1-(6-morpholinopyridin-3-ylsulfonyl)piperidine-2-carbonyloxy)ethyl)pyridine 1-oxide], for which the negative-log IC50 (pIC50) (TNF-α by ELISA) is 9.00 to 10.00.
Regarding `CN(C)C(=O)c1cccc(S(=O)(=O)N2CSC[C@H]2C(=O)O[C@@H](Cc2c(Cl)c[n+]([O-])cc2Cl)c2ccc(OC(F)F)c(OCC3CC3)c2)c1` [Compound 84, 3,5-dichloro-4-((S)-2-(3-(cyclopropylmethoxy)-4-(difluoromethoxy)phenyl)-2-((R)-3-(3-(dimethylcarbamoyl)phenylsulfonyl)thiazolidine-4-carbonyloxy)ethyl)pyridine 1-oxide], for the setting “TNF-α by ELISA”, the pIC50 is over 10.00.
The same measure, in the same setting: in the case of `O=C(O[C@@H](Cc1c(Cl)c[n+]([O-])cc1Cl)c1ccc(OC(F)F)c(OCC2CC2)c1)[C@@H]1CCCCN1S(=O)(=O)c1cccnc1` [Compound 99, 3,5-dichloro-4-((S)-2-(3-(cyclopropylmethoxy)-4-(difluoromethoxy)phenyl)-2-((S)-1-(pyridin-3-ylsulfonyl)piperidine-2-carbonyloxy)ethyl)pyridine 1-oxide] it was 8.00 to 9.00; in that of `O=C(O[C@@H](Cc1c(Cl)c[n+]([O-])cc1Cl)c1ccc(OC(F)F)c(OCC2CC2)c1)[C@@H]1SCCN1S(=O)(=O)c1cccc(OC(F)(F)F)c1` [Compound 104, 3,5-dichloro-4-((S)-2-(3-(cyclopropylmethoxy)-4-(difluoromethoxy)phenyl)-2-((S)-3-(3-(trifluoromethoxy)phenylsulfonyl)thiazolidine-2-carbonyloxy)ethyl)pyridine 1-oxide], 9.00 to 10.00; in that of `COc1ccc(S(=O)(=O)N2CCSC2C(=O)O[C@@H](Cc2c(Cl)c[n+]([O-])cc2Cl)c2ccc(OC(F)F)c(OCC3CC3)c2)cc1C(=O)N1CCN(C)CC1` (stereo partly drawn) [Compound 127, 3,5-dichloro-4-((2S)-2-(3-(cyclopropylmethoxy)-4-(difluoromethoxy)phenyl)-2-(3-(4-methoxy-3-(4-methylpiperazine-1-carbonyl)phenylsulfonyl)thiazolidine-2-carbonyloxy)ethyl)pyridine 1-oxide], 9.00 to 10.00.
Still for that read-out and setting: in the case of `Cn1ccnc1S(=O)(=O)N1CCS[C@H]1C(=O)O[C@@H](Cc1c(Cl)cncc1Cl)c1ccc(OC(F)F)c(OCC2CC2)c1` [Compound 243, (S)-((S)-1-(3-(cyclopropylmethoxy)-4-(difluoromethoxy)phenyl)-2-(3,5-dichloropyridin-4-yl)ethyl) 3-(1-methyl-1H-imidazol-2-ylsulfonyl)thiazolidine-2-carboxylate] it was 9.00 to 10.00.
For the compound `O=C(O[C@@H](Cc1c(Cl)c[n+]([O-])cc1Cl)c1ccc(OC(F)F)c(OCC2CC2)c1)[C@H]1CCCCN1` [Compound 9], the pIC50 (compounds of formula (II)) was 8.00 to 9.00.
For the compound `O=C(O[C@@H](Cc1c(Cl)c[n+]([O-])cc1Cl)c1ccc(OC(F)F)c(OCC2CC2)c1)C1SCCN1S(=O)(=O)CC1CC1` (stereo partly drawn) [Compound 65, 3,5-dichloro-4-((2S)-2-(3-(cyclopropylmethoxy)-4-(difluoromethoxy)phenyl)-2-(3-(cyclopropylmethylsulfonyl)thiazolidine-2-carbonyloxy)ethyl)pyridine 1-oxide], the negative-log IC50 (pIC50) (TNF-α by ELISA) was 9.00 to 10.00.
On the same count and under the same terms, in the case of `O=C(O[C@@H](Cc1c(Cl)c[n+]([O-])cc1Cl)c1ccc(OC(F)F)c(OCC2CC2)c1)C1SCCN1S(=O)(=O)c1ccc(F)cc1Cl` (stereo partly drawn) [Compound 68, 3,5-dichloro-4-((2S)-2-(3-(2-chloro-4-fluorophenylsulfonyl)thiazolidine-2-carbonyloxy)-2-(3-(cyclopropylmethoxy)-4-(difluoromethoxy)phenyl)ethyl)pyridine 1-oxide] it was 9.00 to 10.00; in that of `CNS(=O)(=O)c1ccc(S(=O)(=O)N2CCSCC2C(=O)O[C@@H](Cc2c(Cl)c[n+]([O-])cc2Cl)c2ccc(OC(F)F)c(OCC3CC3)c2)cc1` (stereo partly drawn) [Compound 81, 3,5-dichloro-4-((2S)-2-(3-(cyclopropylmethoxy)-4-(difluoromethoxy)phenyl)-2-(4-(4-(N-methylsulfamoyl)phenylsulfonyl)thiomorpholine-3-carbonyloxy)ethyl)pyridine 1-oxide], 9.00 to 10.00.
On the same count and under the same terms, the value for `O=C(O[C@@H](Cc1c(Cl)c[n+]([O-])cc1Cl)c1ccc(OC(F)F)c(OCC2CC2)c1)[C@@H]1CCCCN1S(=O)(=O)c1ccccc1` [Compound 114, 3,5-dichloro-4-((S)-2-(3-(cyclopropylmethoxy)-4-(difluoromethoxy)phenyl)-2-((S)-1-(phenylsulfonyl)piperidine-2-carbonyloxy)ethyl)pyridine 1-oxide] was 9.00 to 10.00.
The same measure, in the same setting: in the case of `CN(C)Cc1cccc(C(=O)N2CCSC2C(=O)O[C@@H](Cc2c(Cl)c[n+]([O-])cc2Cl)c2ccc(OC(F)F)c(OCC3CC3)c2)c1` (stereo partly drawn) [Compound 34, 3,5-dichloro-4-((2S)-2-(3-(cyclopropylmethoxy)-4-(difluoromethoxy)phenyl)-2-(3-(3-((dimethylamino)methyl)benzoyl)thiazolidine-2-carbonyloxy)ethyl)pyridine 1-oxide] it was 9.00 to 10.00.
